Test results reported in US20200390902A1, “Antibody-Drug Conjugates Targeted at Human Aspartyl-(Asparaginyl)-B-Hydroxylase (HAAH)” (Panacea Pharmaceuticals, Inc., priority 2017, published 2020).
“Also recorded” adds a separate entry of the source. Where two headings read alike, the source gives them in different places.

Legend:
H460 cells [1] = assay: MTS cell viability assay, H460; assay type: cell-based, human
Method: Human H460 cells were obtained from the American Type Culture Collection (ATCC; Manassas, Va., U.S.A.). The H460 cells were seeded at a density of 5,000 cells/well in 96-well plates and cultured in HG-DMEM (ThermoFisher Scientific, Waltham. Mass., U.S.A.; Catalog No. 11965-092) supplemented with 20 mM HEPES, 4 mM L-glutamine, 1 mM sodium pyruvate, 1× non-essential amino acids, 50 μg/ml gentamicin, and 10% fetal bovine serum (FBS)). Human MOLM-14 cells were obtained from Dr. Ashkan Emadi at University of Maryland (Baltimore. Md., U.S.A.). The MOLM-14 cells were seeded at a density of 5000 cells/well in 96-well plates and cultured in RPMI 1640 with 20% heat-inactivated FBS. The H460 and MOLM-14 cells were treated with naked antibodies or ADCs for 24 hours, starting at the time of cell seeding. By the end of experiment, the cell viability for both cell lines was determined quantitatively using CELL TITER 96 AQUOUS ONE SOLUTION cell proliferation assay, a colorimetric method for determining the number of viable cells (MTS; Promega, Madison. Wis., U.S.A.; Catalog No. G3582).
FIG. 6 depicts the effects of linker and payload on cytotoxicity to cancer cell H460. […] The Log of the antibody concentration in nM is shown on the X axis.
The bioactivities of these SNS622 ADCs were examined using H460 cells. The cells were treated for 48 hours with these SNS622-MC-DM1s, or with SNS622 as control. Cell viability was evaluated at the end of the experiment using an MTS assay.
SNS622-MC-vc-PAB-DM1 and SNS622-MC-MMAE were also synthesized under different initial DAR ratios of 2.5:1, 5:1 and 10:1 at fixed pH8. The 460 cells were treated for 72 hours with ADCs SNS622-MC-vc-PAB-DM1 at with OAR 2.5:1; 5:1; and 10:1, or SNS622-MC-MMAE at with DAR 2.5:1; 5:1; and 10:1. The cell viability and cell death were separately quantified with […] and lactate dehydrogenase (LDH) release assays. FIG. 8A depicts a graph of the MTA quantification results expressed as percentage of untreated control. FIG. 8B depicts a graph of the LDH assay results expressed as percentage of 512 nM DM1-elicited maximal LDH release. The Log of the antibody concentration in nM is shown on the X axis.

H460 cells [2] = assay: Cell morphology by phase contrast microscope, H460; assay type: cell-based, human; details: H460, 32 nM, 72 hours
Method: (§1) Both cell lines were cultured in HG-DMEM (ThermoFisher Scientific Catalog No. 11965-092) supplemented with 20 mM HEPES (4-(2-hydroxyethyl)-1-piperazineethanesulfonic acid), 4 mM L-glutamine, 1 mM sodium pyruvate, 1× non-essential amino acids, 50 μg/ml gentamicin and 10% fetal bovine serum (FBS). H460 and NHLF cells were seeded into 96-well plates at 5,000 cells per well, following a 2-day FBS deprivation, and released by culture in complete culture medium containing 10% FBS. […] By 72 hours post treatment, cell death was determined by observing cell morphology using a phase contrast microscope at 150×.

[3] = system: normal human lung fibroblasts (NHLF); assay: Cell morphology by phase contrast microscope, NHLF; assay type: cell-based; details: 32 nM, 72 hours
Method: as §1

H460 lysate = target: T1, H460 lysate (Homo sapiens, UniProt Q12797); assay: Binding of naked antibodies and ADCs to H460 lysate
T1 construct: A 96-well plate was coated with H460 lysate and dried at room temperature overnight; endogenous in cells; host or cells: H460 lysate (sonicated, supernatant)
T1 sequence (Q12797 1-758): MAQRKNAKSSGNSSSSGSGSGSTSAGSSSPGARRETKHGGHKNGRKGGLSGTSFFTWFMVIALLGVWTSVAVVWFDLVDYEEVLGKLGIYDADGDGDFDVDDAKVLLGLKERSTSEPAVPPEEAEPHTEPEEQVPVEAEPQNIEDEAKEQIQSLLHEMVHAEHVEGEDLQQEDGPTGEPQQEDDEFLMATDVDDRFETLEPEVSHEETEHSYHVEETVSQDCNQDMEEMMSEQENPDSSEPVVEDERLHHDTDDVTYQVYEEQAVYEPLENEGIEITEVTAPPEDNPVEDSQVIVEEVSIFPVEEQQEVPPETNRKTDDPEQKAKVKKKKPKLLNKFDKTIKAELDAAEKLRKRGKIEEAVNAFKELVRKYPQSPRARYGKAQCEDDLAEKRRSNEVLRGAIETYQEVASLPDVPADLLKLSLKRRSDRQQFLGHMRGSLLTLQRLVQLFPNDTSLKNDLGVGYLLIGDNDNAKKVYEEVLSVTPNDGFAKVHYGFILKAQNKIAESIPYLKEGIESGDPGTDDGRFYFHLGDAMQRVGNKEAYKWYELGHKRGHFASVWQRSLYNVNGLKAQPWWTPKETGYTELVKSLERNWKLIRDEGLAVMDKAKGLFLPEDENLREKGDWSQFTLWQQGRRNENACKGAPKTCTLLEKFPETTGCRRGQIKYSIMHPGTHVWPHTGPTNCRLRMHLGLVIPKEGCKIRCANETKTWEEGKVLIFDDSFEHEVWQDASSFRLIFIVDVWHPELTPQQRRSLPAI
Method: H460 cells were harvested, the cell density was adjusted to 2×10^6 cells/ml with PBS, and the resuspended cells sonicated on ice twice in 30 second pulses. After centrifugation at 300×g for 5 minutes the supernatant was collected and the protein concentration measured using a NANODROP spectrophotometer (ThermoFisher Scientific). A 96-well plate was coated with H460 lysate and dried at room temperature overnight. Following a 1-hour blockage with 1% non-fat dry milk in phosphate buffered saline (PBS), the plates were incubated for 45 minutes at 37° C. with each either 0.5 μg/ml IgG1λ (non-specific monoclonal antibody), IgG1λ-MC-DM1 (non-specific ADC), or SNS622-MC-DM1, or with 5 μg/ml SNS622. Following five PBS rinses to remove un-bound antibody. 1:100 goat anti-human IgG (8)-HRP was added and the plates incubated for 30 minutes at 37° C. Following five PBS rinses TMB substrate was added and, after incubation of the plates for 15 minutes at room temperature. Stop solution was added to terminate the reactions. The plates were read at 450 nm using a 96-well plate reader (ELx808, BioTek).

## SNS622-MC-DM1: SNS622 anti-HAAH monoclonal antibody conjugated to mertansine (DM1) by the non-cleavable linker maleimidocaproyl (MC)
H460 cells [1]; H460, 24 hours
  Effect on H460 cell viability / growth (MTS): decreased the H460 cell viability; also recorded: inhibit in vitro cell growth of both H460 and MOLM-14
H460 cells [1]; H460, 24 hours, read-out: EC50, killing of H460 cells (MTS)
  EC50: ~15 nM
H460 cells [1]; H460, 72 hours, reaction DAR 10:1, read-out: IC50 of MTS
  IC50: 64 nM
H460 cells [1]; stated for both cancer cell lines (H460 and MOLM-14), read-out: IC50, suppressing cell growth
  IC50: 15 nM
H460 cells [2]
  Cell density (morphology): reduction of cell density
[3]
  Cell density (morphology): no significant reduction of cell density
H460 lysate; percent of loading amount bound
  Percent binding: 107%
H460 lysate; sonicated H460 (2E^6 cells/ml), loading 5.0 or 0.5 μg/ml
  Binding amount: 5.35 µg/mL
